Key:
5-HT1A receptor = target: T1, 5-HT1A receptor (Homo sapiens, UniProt P08908); experiment: 5-HT1A receptor cAMP agonist test (HEK293 cell line stably expressing 5-HT1A receptor); assay type: cell-based; details: for EC50: cAMP agonist assay with forskolin, HEK293 cells stably expressing 5-HT1A; for 5-HT1A Max Act %: maximal activation rate relative to Serotonin positive control
T1 construct: expressed in transfected cells
T1 sequence (P08908 1-422): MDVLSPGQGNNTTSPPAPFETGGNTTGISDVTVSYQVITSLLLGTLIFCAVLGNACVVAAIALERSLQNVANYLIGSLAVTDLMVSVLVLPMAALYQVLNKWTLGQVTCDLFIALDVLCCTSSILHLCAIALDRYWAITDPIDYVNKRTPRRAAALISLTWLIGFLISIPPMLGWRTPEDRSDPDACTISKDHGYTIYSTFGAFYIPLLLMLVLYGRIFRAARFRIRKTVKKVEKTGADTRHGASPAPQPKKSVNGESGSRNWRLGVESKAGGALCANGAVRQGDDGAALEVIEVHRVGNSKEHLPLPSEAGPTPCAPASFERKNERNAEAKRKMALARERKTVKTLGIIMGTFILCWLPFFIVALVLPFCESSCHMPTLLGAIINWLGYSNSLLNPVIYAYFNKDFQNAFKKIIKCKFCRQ
Method: 2.1 Experimental Materials:
The cAMP detection kit was purchased from Cisbio; the HEK293 cell line stably expressing 5-HT1A receptor was constructed by Shanghai Shujing Biotechnology Co., Ltd.; Serotonin, Forskolin and IBMX were purchased from Sigma; ProxiPlate-384-well plates was purchased from PerkinElmer; HBSS was purchased from Thermo Fisher Scientific.
(§1) (1) Preparation of experimental buffer: 5×stimulation buffer was diluted to 1× with ddH2O, adding IBMX with a final concentration of 0.5 mM, mixing well for later use.
(2) The cultured cells were digested with trypsin, and the cell suspension was washed with HBSS buffer after the digestion was terminated, centrifuging to remove the culture medium at 200×g; the precipitate was resuspended with an appropriate amount of experimental buffer, taking 20 μL for counting with a cell counter, and diluting to 0.4×10^6 cells/mL.
(3) 5 μL cell suspension (2×10^3 cells per well) was added to ProxiPlate-384 well plate.
(4) The compound to be tested was diluted in the experimental buffer by gradient, and 5 μL was transferred to the reaction plate using Bravo, 5 μL experimental buffer was put in each negative control well, and 5 μL Serotonin (final concentration 10^−6 M) was put in each positive control well.
(5) Incubating at room temperature for 15 minutes.
(6) Forskolin (final concentration 1.5×10^−7M) was added to the reaction plate using TecanD300e picoliter micro-dosing system.
(7) Incubating at room temperature for 45 minutes.
(8) 10 μL detection reagent was added to the reaction plate, incubating at room temperature for 1 hour in dark.
(§2) Activation rate (activity %)=(negative control ratio-compound ratio)/(negative control ratio-positive control ratio)×100%
The EC50 values of the compounds were calculated using the four-parameter fitting model log(agouist)vs. response—Variable slope (four parameters) in Graph Pad Prism.

[1] = test system: high spontaneous activity induced by MK-801; experiment: Inhibition of high spontaneous activity induced by MK-801 in mice; assay type: in vivo; details: male C57Bl/6J mice, compound p.o. 30 min before MK-801 0.3 mg/kg i.p.
Method: 3.1 Experimental Materials:
Compounds to be tested: compounds in the examples of the present application, self-made.
(§3) Experimental animals: 18-22 g male C57Bl/6J mice, purchased from Shanghai Slack Experimental Animal Co., Ltd.
3.2.1 Grouping of animals: before the start of the experiment, animals were randomly grouped according to body weight. 3.2.2 Animal adaptation: before the experiment, the mice were first adapted to the experimental environment for at least 1 hour. That is, the animals were transferred from the breeding room to the laboratory and moved freely in the cage.
Drug preparation: taking the compound to be tested, adding pure water and performing ultrasonication.
The animals were randomly divided into blank group, model group, and administration group according to body weight, 9 mice % group, and the detailed administration information is shown in the following table:
T-30 min oral administration of compound: compound to be tested or solvent (pure water) was administered orally by gavage, and put into test box (test box size length*width*height=27*27*40 cm) immediately after administration, recording the spontaneous activity of the mice within 30 minutes.
The blank control group was injected with normal saline.
3.2.4 Data Recording and Analysis.
(§4) The activities of these animals (movement distance in the test box) were automatically recorded by the camera, and analyzed with ANY MAZE software, and the ED50 values were calculated.

TAAR1 receptor = target: T2, TAAR1 receptor (Homo sapiens, UniProt Q96RJ0); experiment: TAAR1 receptor cAMP agonist test (HEK293 cell line stably expressing TAAR1 receptor); assay type: cell-based; details: for EC50: cAMP agonist assay, HEK293 cells stably expressing TAAR1; for TAAR1 Max Act %: maximal activation rate relative to PEA positive control
T2 construct: expressed in transfected cells
T2 sequence (Q96RJ0 1-339): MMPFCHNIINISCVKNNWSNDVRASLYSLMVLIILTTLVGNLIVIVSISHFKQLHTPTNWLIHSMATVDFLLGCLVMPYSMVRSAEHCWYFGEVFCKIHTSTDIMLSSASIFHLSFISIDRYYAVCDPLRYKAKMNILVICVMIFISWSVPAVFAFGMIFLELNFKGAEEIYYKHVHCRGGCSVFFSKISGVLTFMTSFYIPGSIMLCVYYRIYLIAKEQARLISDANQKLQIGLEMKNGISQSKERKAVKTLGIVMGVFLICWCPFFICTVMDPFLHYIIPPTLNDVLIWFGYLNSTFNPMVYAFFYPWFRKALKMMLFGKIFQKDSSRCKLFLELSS
Method: 1.1 Experimental Materials:
The cAMP detection lit was purchased from Cisbio; the […] cell line stably expressing TAAR1 receptor was constructed by Shanghai Singing Biotechnology Co., Ltd.; IBMX was purchased from Sigma; Phenethylamine (PEA); ProxiPlate-384 well plate was purchased from PerkinElmer. HBSS was purchased from Thermo Fisher Scientific Company.
as §1
(2) The frozen cells were thawed quickly in a 37° C. water bath, the cell suspension was washed with HBSS buffer, centrifuging at 200×g to remove the frozen storage solution, the pellet was resuspended with an appropriate amount of experimental buffer, taking 20 μL for counting with a cell counter, and diluting to 1.5×10^6 cells/mL.
(3) 5 μL of cell suspension (1.5×10^4 cells per well) was added to the ProxiPlate-384 well plate.
(4) The compound to be tested was diluted in the experimental buffer by gradient, and 5 μL was transferred to the reaction plate using Bravo, 5 μL experimental buffer was put in each negative control well, and 5 μL PEA (final concentration 10^−2M) was put in each positive control well.
(5) Incubating at 37° C. for 1 hour.
(6) 10 ELL of detection reagent was added to the reaction plate, incubating at room temperature for 1 hour in dark.
as §2
The EC50 values of the compounds were calculated using the four-parameter fitting model log(agonist)vs.response—Variable slope (four parameters) in GraphPad Prism.

[2] = test system: high spontaneous activity induced by PCP; experiment: Inhibition of high spontaneous activity induced by PCP in mice; assay type: in vivo; details: male C57Bl/6J mice, compound p.o. 30 min before PCP 5 mg/kg i.p.
Description: Compounds to be tested: compounds of the examples of the present application, self-made.
Phencyclidine hydrochloride (PCP): purchased from Shanghai Yuansi Standard Science Technology Co., Ltd., specification: 5 g.
as §3
That is, animals were transferred from the feeding room to the laboratory, and moved freely in the cage.
The animals were randomly divided into blank group, model group, and administration group according to body weight, 9 mice/group, and the detailed administration information is shown in the following table:
T0 min intraperitoneal injection of modeling drug: 30 minutes after compound administration, the mice were taken out, and administered with PCP (5 mg/kg) by intraperitoneal injection. The blank control group was injected with pure water.
as §4

| Structure (SMILES) | EC50 (5-HT1A receptor) [nM] | 5-HT1A Max Act % (5-HT1A receptor) [%] | ED50 ([1]; Mus musculus, movement distance over 150 min, read-out: ED50 (half effective dose)) [mg/kg] | MED (minimum effective dose) [1] [mg/kg] | EC50 (TAAR1 receptor) [nM] | TAAR1 Max Act % (TAAR1 receptor) [%] | MED (minimum effective dose) [2] [mg/kg] |
| --- | --- | --- | --- | --- | --- | --- | --- |
| CNC[C@@H]1OCC2(CC2)c2ccsc21 (single isomer, unassigned) [Example 8-S] | 903 | 90.7 | 0.36 | 0.3 | 704 | 96.1 | 0.3 |
| CNC[C@@H]1OCC2(CC2)c2sccc21 (single isomer, unassigned) [Example 9-R] |  |  |  | 10 |  |  | 0.1 |
| CNC[C@H]1OCC2(CC2)c2sccc21 (single isomer, unassigned) [Example 9-S] |  |  |  |  | 795 | 95.8 |  |
| CNCC1OCC2(CCC2)c2ccsc21 (stereo not drawn) [Example 2, 1-(5′H,7′H-spiro[cyclobutane-1,4′-thieno[2,3c]pyran]-7′-yl)-N-methylmethylamine] | 257 | 108.9 |  |  |  |  |  |
| CNCC1OCC2(CC2)c2c(C)csc21 (stereo not drawn) [Example 7, 1-(3′-methyl-5′H,7′H-Spiro[cyclopropane-1,4′-thieno[2,3-c]pyran]-7′-yl)-N-methylmethylamine] | 394 | 93.4 |  |  |  |  |  |
| CNCC1OCC2(CC2)c2ccsc21 (stereo not drawn) [Example 8, 1-(5′H,7′H-Spiro[cyclopropane-1,4-thieno[2,3-c]pyran]-7′-yl)-N-methylmethylamine] | 1540 | 91.6 |  |  | 1630 | 96.6 |  |
| CNCC1OCC2(CC2)c2sccc21 (stereo not drawn) [Example 9, 1-(4′H,6′H-spiro[cyclopropane-1,7′-thieno[3,2-c]pyran]-4′-yl)-N-methylmethylamine] | 2440 | 92.7 |  |  | 1670 | 95.5 |  |
| [2H]C([2H])([2H])NCC1OCC2(CC2)c2ccsc21 (stereo not drawn) [Example 15, N-((5′H,7′H-Spiro[cyclopropane-1,4′-thieno[2,3-c]pyran]-7′-yl)methyl)methane-d3-amine] | 2680 | 93.7 |  |  | 1730 | 93.3 |  |
| CCNCC1OCC2(CC2)c2ccsc21 (stereo not drawn) [Example 16, N-((5′H,7′H-spiro[cyclopropane-1,4′-thieno[2,3-c]pyran]-7′-yl)methyl)ethylamine] | 1380 | 115.6 |  |  |  |  |  |
| c1cc2c(s1)C(CN1CCC1)OCC21CC1 (stereo not drawn) [Example 23, 1-((5′H,7′H-Spiro[cyclopropane-1,4′-thieno[2,3-c]pyran]-7′-yl)methyl)azetidine] | 5510 | 75.5 |  |  |  |  |  |
| [2H]C([2H])([2H])NCC1OCC2(CC2)c2sccc21 (stereo not drawn) [Example 32, N-((4′,6′-dihydrospiro[cyclopropane-1,7′-thieno[3,2-c]pyran]-4′-yl)methyl)methyl-D3-amine] | 1880 | 80.5 |  |  | 1320 | 97.7 |  |
| [2H]C([2H])([2H])NC[C@@H]1OCC2(CC2)c2sccc21 [Example 32-R, (R)—N-((4′,6′-dihydrospiro[cyclopropane-1,7′-thieno[3,2-c]pyran]-4′-yl)methyl)methyl-D3-amine] | 1670 | 86.3 |  |  |  |  |  |
| [2H]C([2H])([2H])NC[C@H]1OCC2(CC2)c2sccc21 [Example 32-S, (S)—N-((4′,6′-dihydrospiro[cyclopropane-1,7′-thieno[3,2-c]pyran]-4′-yl)methyl)methyl-D3-amine] |  |  |  |  | 806 | 97.1 |  |

Reference: patent US20240190888A1, “SPIRO-CONTAINING DERIVATIVE, AND PREPARATION METHOD THEREFOR AND USE THEREOF” (priority 2021, published 2024)
